Results from patent US8697739B2, “Bicyclic acetyl-CoA carboxylase inhibitors and uses thereof” (Novartis AG, priority 2010, dated 2014).

Each compound was assayed against T1, human acetyl-CoA carboxylase 2 (ACC2) (Homo sapiens, UniProt O00763) (assay: Acetyl-CoA carboxylase enzyme assay (malonyl-CoA formation by LC/MS/MS)). Conditions: IC50 ACC2, recombinant human ACC2 (aa 144-2458).
T1 construct: The cDNA encoding amino acids 144 to 2458 of human acetyl-CoA carboxylase 2; made in house; host or cells: Sf9 insect cells (baculovirus, pFastBac1)
T1 sequence (O00763 144-2458): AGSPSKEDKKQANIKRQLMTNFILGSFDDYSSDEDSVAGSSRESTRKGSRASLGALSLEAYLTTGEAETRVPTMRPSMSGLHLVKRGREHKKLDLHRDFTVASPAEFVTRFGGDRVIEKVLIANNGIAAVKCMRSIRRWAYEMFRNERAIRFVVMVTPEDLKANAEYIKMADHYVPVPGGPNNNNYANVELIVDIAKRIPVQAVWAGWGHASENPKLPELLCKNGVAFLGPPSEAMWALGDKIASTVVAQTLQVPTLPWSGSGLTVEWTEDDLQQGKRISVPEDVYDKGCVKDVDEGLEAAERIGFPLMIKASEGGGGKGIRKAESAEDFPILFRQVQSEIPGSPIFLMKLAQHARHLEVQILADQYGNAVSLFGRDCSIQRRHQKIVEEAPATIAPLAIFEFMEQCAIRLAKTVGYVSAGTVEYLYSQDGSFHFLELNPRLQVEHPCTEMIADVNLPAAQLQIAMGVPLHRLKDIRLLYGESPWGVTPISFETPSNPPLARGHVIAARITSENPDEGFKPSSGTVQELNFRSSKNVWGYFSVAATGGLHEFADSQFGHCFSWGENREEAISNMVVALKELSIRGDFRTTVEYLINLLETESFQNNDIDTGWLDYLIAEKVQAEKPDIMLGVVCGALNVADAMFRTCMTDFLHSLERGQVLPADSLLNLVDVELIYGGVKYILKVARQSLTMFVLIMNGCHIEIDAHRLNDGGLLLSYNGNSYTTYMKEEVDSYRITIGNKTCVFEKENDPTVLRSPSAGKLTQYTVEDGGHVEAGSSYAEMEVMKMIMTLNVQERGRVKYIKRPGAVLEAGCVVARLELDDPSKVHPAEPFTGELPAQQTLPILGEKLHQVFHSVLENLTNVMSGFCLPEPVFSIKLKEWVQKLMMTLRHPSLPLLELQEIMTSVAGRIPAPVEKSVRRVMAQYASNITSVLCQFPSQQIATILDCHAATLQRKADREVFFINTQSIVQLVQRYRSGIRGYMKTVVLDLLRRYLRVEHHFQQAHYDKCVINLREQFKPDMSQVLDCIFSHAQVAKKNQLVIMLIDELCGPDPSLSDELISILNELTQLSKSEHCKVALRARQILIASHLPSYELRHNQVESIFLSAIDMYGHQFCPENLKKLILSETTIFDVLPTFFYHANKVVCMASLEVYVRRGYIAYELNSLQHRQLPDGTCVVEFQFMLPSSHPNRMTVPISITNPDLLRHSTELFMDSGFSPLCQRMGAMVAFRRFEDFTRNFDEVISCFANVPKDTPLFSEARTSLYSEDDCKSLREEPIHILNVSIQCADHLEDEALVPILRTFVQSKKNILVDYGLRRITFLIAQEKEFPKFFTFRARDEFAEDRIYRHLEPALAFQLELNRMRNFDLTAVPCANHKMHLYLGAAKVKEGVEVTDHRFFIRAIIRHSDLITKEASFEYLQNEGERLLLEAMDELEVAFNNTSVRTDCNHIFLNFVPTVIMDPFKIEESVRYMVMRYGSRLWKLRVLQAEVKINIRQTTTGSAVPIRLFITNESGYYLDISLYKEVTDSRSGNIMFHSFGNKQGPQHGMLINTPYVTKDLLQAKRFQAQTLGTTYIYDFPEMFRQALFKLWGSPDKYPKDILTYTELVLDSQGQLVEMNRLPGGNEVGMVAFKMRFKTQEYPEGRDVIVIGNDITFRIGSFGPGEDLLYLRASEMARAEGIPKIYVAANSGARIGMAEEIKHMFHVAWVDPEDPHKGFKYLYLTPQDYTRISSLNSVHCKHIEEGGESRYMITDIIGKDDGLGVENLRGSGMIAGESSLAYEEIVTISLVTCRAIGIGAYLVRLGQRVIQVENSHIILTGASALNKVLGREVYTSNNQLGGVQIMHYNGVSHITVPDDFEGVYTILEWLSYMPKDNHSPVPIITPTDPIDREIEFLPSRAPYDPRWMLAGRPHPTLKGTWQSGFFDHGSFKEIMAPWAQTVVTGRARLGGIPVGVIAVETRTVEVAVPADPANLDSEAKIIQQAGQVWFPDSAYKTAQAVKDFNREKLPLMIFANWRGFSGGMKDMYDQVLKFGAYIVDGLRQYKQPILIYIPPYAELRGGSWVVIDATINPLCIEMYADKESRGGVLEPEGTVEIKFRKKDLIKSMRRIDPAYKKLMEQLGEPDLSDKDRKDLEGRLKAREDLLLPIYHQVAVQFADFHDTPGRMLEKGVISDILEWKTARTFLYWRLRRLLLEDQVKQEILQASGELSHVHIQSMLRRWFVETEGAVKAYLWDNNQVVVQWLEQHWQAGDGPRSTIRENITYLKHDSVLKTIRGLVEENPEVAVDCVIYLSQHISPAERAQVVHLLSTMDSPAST
Assay type: biochemical
Summary of the method: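 Malonyl-CoA formation was read by LC/MS/MS MRM against a [13C3]-malonyl-CoA internal standard, after acetic acid quench. The enzyme was baculovirus/Sf9-expressed human ACC2 residues 144–2458, given 15 minutes room-temperature compound preincubation in HEPES pH 7.5 buffer with MgCl2, citrate and DTT. Substrate solution held 50 μM acetyl-CoA, 120 μM ATP and 2 mM KHCO3.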

Row | SMILES | IC50
1 | O=C([C@H]1CC[C@H](NS(=O)(=O)c2ccc3[nH]c(-c4ccccc4)nc3c2)CC1)N1CCC2(CC1)OCCCO2 [Example 622, N-((1r,4r)-4-(1,5-dioxa-9-azaspiro[5.5]undecane-9-carbonyl)cyclohexyl)-2-phenyl-1H-benzo[d]imidazole-5-sulfonamide] | 411 nM

Same assay, conditions: recombinant human ACC2 (aa 144-2458); read-out: IC50 ACC2

Row | SMILES | IC50
2 | Cc1cc(C(=O)O)ccc1-c1cc2ccc(S(=O)(=O)N[C@H]3CC[C@H](C(=O)N[C@H](C)c4ccc(F)cc4)CC3)cc2[nH]1 [Example 301, 4-(6-(N-((1R,4r)-4-((R)-1-(4-fluorophenyl)ethylcarbamoyl)cyclohexyl)sulfamoyl)-1H-indol-2-yl)-3-methylbenzoic acid] | < 10 nM
3 | Cc1ccccc1-c1cc2ccc(S(=O)(=O)NC3CCC(C(=O)N4CCOCC4c4ccccc4)CC3)cc2[nH]1 [Example 327, N-((1S,4r)-4-((S)-3-phenylmorpholine-4-carbonyl)cyclohexyl)-2-o-tolyl-1H-indole-6-sulfonamide] | < 10 nM
4 | C[C@@H](NC(=O)[C@H]1CC[C@H](NS(=O)(=O)c2ccc3[nH]c([C@@H]4CCCN4)nc3c2)CC1)c1ccc(F)cc1 [Example 3, (1r,4R)—N—((R)-1-(4-fluorophenyl)ethyl)-4-(2-((S)-pyrrolidin-2-yl)-1H-benzo[d]imidazole-5-sulfonamido)cyclohexanecarboxamide] | 507 nM
5 | CC(C)[C@@H](C)NC(=O)[C@H]1CC[C@H](NS(=O)(=O)c2ccc3[nH]c(-c4cccnc4)cc3c2)CC1 [Example 289, (1r,4R)-N-((R)-3-methylbutan-2-yl)-4-(2-(pyridin-3-yl)-1H-indole-5-sulfonamido)cyclohexanecarboxamide] | 234 nM
6 | CC(C)OC(=O)c1ccc(NS(=O)(=O)c2ccc3[nH]c(Nc4cccc(Cl)c4)nc3c2)cc1 [Example 547, isopropyl 4-(2-(3-chlorophenylamino)-1H-benzo[d]imidazole-5-sulfonamido)benzoate] | 374 nM
7 | Cc1ccccc1-c1nc2cc(S(=O)(=O)N[C@H]3CC[C@H](C(=O)N[C@H](C)c4ccc(F)cc4)CC3)cnc2o1 [Example 76, (1r,4R)-N-((R)-1-(4-fluorophenyl)ethyl)-4-(2-o-tolyloxazolo[5,4-b]pyridine-6-sulfonamido)cyclohexanecarboxamide] | 590 nM
8 | CC(C)c1nnc(-c2ccc(NS(=O)(=O)c3ccc4[nH]c(Nc5ccc(N6CCN(C)CC6)cc5)nc4c3)cc2)o1 [Example 605, N-(4-(5-isopropyl-1,3,4-oxadiazol-2-yl)phenyl)-2-(4-(4-methylpiperazin-1-yl)phenylamino)-1H-benzo[d]imidazole-5-sulfonamide] | 138 nM
9 | O=C([C@H]1CC[C@H](NS(=O)(=O)c2ccc3c(Cl)c(-c4ccccc4)[nH]c3c2)CC1)N1CCCCC1 [Example 373, 3-chloro-2-phenyl-N-((1r,4r)-4-(piperidine-1-carbonyl)cyclohexyl)-1H-indole-6-sulfonamide] | 75 nM
10 | CC(C)OC(=O)c1ccc(NS(=O)(=O)c2ccc3[nH]c(Nc4ccc5c(c4)OCCO5)nc3c2)cc1 [Example 526, isopropyl 4-(2-(2,3-dihydrobenzo[b][1,4]dioxin-6-ylamino)-1H-benzo[d]imidazole-5-sulfonamido)benzoate] | 178 nM
11 | CC(C)(C)OC(=O)N1CCN(C(=O)[C@H]2CC[C@H](NS(=O)(=O)c3ccc4cc(-c5ccccc5C(F)(F)F)[nH]c4c3)CC2)[C@@H](c2ccccc2)C1 [Example 328, (S)-tert-butyl 3-phenyl-4-((1r,4S)-4-(2-(2-(trifluoromethyl)phenyl)-1H-indole-6-sulfonamido)cyclohexanecarbonyl)piperazine-1-carboxylate] | 55 nM
12 | CC1(C)CN(C(=O)[C@H]2CC[C@H](NS(=O)(=O)c3ccc4cc(-c5ccccc5)[nH]c4c3)CC2)CCO1 [Example 464, N-((1r,4r)-4-(2,2-dimethylmorpholine-4-carbonyl)cyclohexyl)-2-phenyl-1H-indole-6-sulfonamide] | 30 nM
13 | C[C@@H](NC(=O)[C@H]1CC[C@H](NS(=O)(=O)c2ccc3nc(N4CCNC(C(F)(F)F)C4)ccc3c2)CC1)c1ccc(F)cc1 (stereo partly drawn) [Example 248, (1r,4R)-N-((R)-1-(4-fluorophenyl)ethyl)-4-(2-(3-(trifluoromethyl)piperazin-1-yl)quinoline-6-sulfonamido)cyclohexanecarboxamide] | 210 nM
14 | CC(C)OC(=O)c1ccc(NS(=O)(=O)c2ccc3[nH]c(-c4ccccc4)nc3c2)cc1 [Example 488, isopropyl 4-(2-phenyl-1H-benzo[d]imidazole-5-sulfonamido)benzoate] | 1030 nM
15 | C[C@@H](NC(=O)[C@H]1CC[C@H](NS(=O)(=O)c2ccc3c(c2)OCCN3C)CC1)c1ccc(F)cc1 [Example 122, (1r,4R)-N-((R)-1-(4-fluorophenyl)ethyl)-4-(4-methyl-3,4-dihydro-2H-benzo[b][1,4]oxazine-7-sulfonamido)cyclohexanecarboxamide] | 16 nM
16 | CCN(C)C(=O)[C@H]1CC[C@H](NS(=O)(=O)c2ccc3[nH]c(-c4ccc(N5CCN(C)CC5)cc4)nc3c2)CC1 [Example 567, (1r,4r)-N-ethyl-N-methyl-4-(2-(4-(4-methylpiperazin-1-yl)phenyl)-1H-benzo[d]imidazole-5-sulfonamido)cyclohexanecarboxamide] | 65 nM
17 | COCCOc1ccc(-c2cc3ccc(S(=O)(=O)N[C@H]4CC[C@H](C(=O)N5CCC[C@@H]5C(C)(C)O)CC4)cc3n2C)cc1 [Example 451, N-((1R,4r)-4-((R)-2-(2-hydroxypropan-2-yl)pyrrolidine-1-carbonyl)cyclohexyl)-2-(4-(2-methoxyethoxy)phenyl)-1-methyl-1H-indole-6-sulfonamide] | 80 nM
18 | C[C@@H](NC(=O)[C@H]1CC[C@H](NS(=O)(=O)c2ccc3c(c2)NCCO3)CC1)c1ccc(F)cc1 [Example 150, (1r,4R)-4-(3,4-dihydro-2H-benzo[b][1,4]oxazine-6-sulfonamido)-N-((R)-1-(4-fluorophenyl)ethyl)cyclohexanecarboxamide] | 105 nM
19 | C[C@@H](NC(=O)[C@H]1CC[C@H](NS(=O)(=O)c2ccc3c(c2)N(C)[C@H](C(=O)O)CC3)CC1)c1ccc(F)cc1 [Example 250, (S)-7-(N-((1R,4S)-4-((R)-1-(4-fluorophenyl)ethylcarbamoyl)cyclohexyl)sulfamoyl)-1-methyl-1,2,3,4-tetrahydroquinoline-2-carboxylic acid] | 595 nM
20 | COC(=O)C(C)(C)[C@@H](NC(=O)[C@H]1CC[C@H](NS(=O)(=O)c2ccc3cc(C4CC4)n(C)c3c2)CC1)c1ccccc1 [Example 396, (S)-methyl 3-((1r,4S)-4-(2-cyclopropyl-1-methyl-1H-indole-6-sulfonamido)cyclohexanecarboxamido)-2,2-dimethyl-3-phenylpropanoate] | 10 nM
21 | CC(C)OC(=O)[C@H]1CC[C@H](NS(=O)(=O)c2ccc3[nH]c(-c4ccc(N5CCN(C)CC5)cc4)nc3c2)CC1 [Example 557, (1r,4r)-isopropyl 4-(2-(4-(4-methylpiperazin-1-yl)phenyl)-1H-benzo[d]imidazole-5-sulfonamido)cyclohexanecarboxylate] | 13 nM
22 | CC1COCCN1C(=O)[C@H]1CC[C@H](NS(=O)(=O)c2ccc3c(C#N)c(C4CC4)n(C)c3c2)CC1 (some centres unmarked) [Example 401, 3-cyano-2-cyclopropyl-1-methyl-N-((1r,4r)-4-(3-methylmorpholine-4-carbonyl)cyclohexyl)-1H-indole-6-sulfonamide] | 25 nM
23 | COc1ccc(Nc2nc3cc(S(=O)(=O)Nc4ccc(C(=O)OC(C)C)cc4)ccc3[nH]2)cc1OC [Example 531, isopropyl 4-(2-(3,4-dimethoxyphenylamino)-1H-benzo[d]imidazole-5-sulfonamido)benzoate] | 248 nM
24 | Cc1cc(CO)ccc1-c1cc2ccc(S(=O)(=O)N[C@H]3CC[C@H](C(=O)N4CCN(C(=O)OC(C)(C)C)C[C@@H]4c4ccccc4)CC3)cc2[nH]1 [Example 309, (S)-tert-butyl 4-((1r,4S)-4-(2-(4-(hydroxymethyl)-2-methylphenyl)-1H-indole-6-sulfonamido)cyclohexanecarbonyl)-3-phenylpiperazine-1-carboxylate] | 20 nM
25 | C[C@@H](NC(=O)[C@H]1CC[C@H](NS(=O)(=O)c2ccc3[nH]ccc3c2)CC1)c1ccc(F)cc1 [Example 16, (1r,4R)—N—((R)-1-(4-fluorophenyl)ethyl)-4-(1H-indole-5-sulfonamido)cyclohexanecarboxamide] | 51 nM
26 | C[C@@H]1C[C@H](C)CN(C(=O)[C@H]2CC[C@H](NS(=O)(=O)c3ccc4[nH]c(-c5ccccc5)nc4c3)CC2)C1 [Example 666, N-((1R,4r)-4-((3S,5R)-3,5-dimethylpiperidine-1-carbonyl)cyclohexyl)-2-phenyl-1H-benzo[d]imidazole-5-sulfonamide] | 30 nM
27 | Cn1c(-c2ccccc2)cc2ccc(S(=O)(=O)N[C@H]3CC[C@H](C(=O)N4CCC[C@@H]4C(C)(C)O)CC3)cc21 [Example 443, N-((1R,4r)-4-((R)-2-(2-hydroxypropan-2-yl)pyrrolidine-1-carbonyl)cyclohexyl)-1-methyl-2-phenyl-1H-indole-6-sulfonamide] | 30 nM
28 | O=C([C@H]1CC[C@H](NS(=O)(=O)c2ccc3cc(-c4ccc(F)cc4)[nH]c3c2)CC1)N1CCNC(C(F)(F)F)C1 (some centres unmarked) [Example 348, 2-(4-fluorophenyl)-N-((1r,4r)-4-(3-(trifluoromethyl)piperazine-1-carbonyl)cydohexyl)-1H-indole-6-sulfonamide] | 45 nM
29 | C[C@@H](NC(=O)[C@H]1CC[C@H](NS(=O)(=O)c2ccc3c(c2)CCCN3)CC1)c1ccc(F)cc1 [Example 152, (1r,4R)-N-((R)-1-(4-fluorophenyl)ethyl)-4-(1,2,3,4-tetrahydroquinoline-6-sulfonamido)cyclohexanecarboxamide] | 60 nM
